Source: the supplement of paper PMC10307832

Assays:
Assay in all cases: relative viability (nuclei count vs DMSO), 5 days (fraction); higher = more cells survive
NCI-H2405 = system: NCI-H2405
In short: (§1)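 Relative viability is defined as nuclei in treated wells over nuclei in vehicle wells. Duplicate plates were run and medians reported. Lung cancer cell lines in 1536-well plates were dosed by pin tool one day after seeding, with one drug or with a fixed anchor-drug dose plus five library-drug doses (not always all listed) in √10 steps, and nuclei were counted after 5 days.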

HCC-366 = system: HCC-366
In short: as §1

NCI-H522 = system: NCI-H522
In short: as §1

HCC-78 = system: HCC-78
In short: as §1

COR-L 105 = system: COR-L 105
In short: as §1

SK-MES-1 = system: SK-MES-1
In short: as §1

NCI-H1993 = system: NCI-H1993
In short: as §1

HCC-15 = system: HCC-15
In short: as §1

NCI-H647 = system: NCI-H647
In short: as §1

EMC-BAC-2 = system: EMC-BAC-2
In short: as §1

NCI-H661 = system: NCI-H661
In short: as §1

A-427 = system: A-427
In short: as §1

NCI-H460 = system: NCI-H460
In short: as §1

NCI-H1734 = system: NCI-H1734
In short: as §1

COR-L23 = system: COR-L23
In short: as §1

HOP-62 = system: HOP-62
In short: as §1

201T = system: 201T
In short: as §1

BEN = system: BEN
In short: as §1

LK-2 = system: LK-2
In short: as §1

NCI-H1915 = system: NCI-H1915
In short: as §1

EKVX = system: EKVX
In short: as §1

PC-14 = system: PC-14
In short: as §1

SMILES: Cc1csc(=NC2CCCCC2)n1/N=C/c1ccc(O)c(O)c1O [MIM1] + Nc1ncn([C@H]2C[C@H](O)[C@@H](CO)O2)c(=O)n1 [Decitabine] (partner 2 µM)
- relative viability (NCI-H2405; first compound 0.2 µM): 0.744
- relative viability (NCI-H2405; first compound 0.6325 µM): 0.738
- relative viability (NCI-H2405; first compound 2 µM): 0.771
- relative viability (NCI-H2405; first compound 6.325 µM): 0.561
- relative viability (NCI-H2405; first compound 20 µM): 0.421
- relative viability (HCC-366; first compound 0.2 µM): 0.295
- relative viability (HCC-366; first compound 2 µM): 0.354
- relative viability (HCC-366; first compound 6.325 µM): 0.176
- relative viability (HCC-366; first compound 20 µM): 0.0249
- relative viability (NCI-H522; first compound 0.2 µM): 0.625
- relative viability (NCI-H522; first compound 0.6325 µM): 0.632
- relative viability (NCI-H522; first compound 2 µM): 0.711
- relative viability (NCI-H522; first compound 6.325 µM): 0.691
- relative viability (NCI-H522; first compound 20 µM): 0.63
- relative viability (HCC-78; first compound 0.2 µM): 0.784
- relative viability (HCC-78; first compound 2 µM): 0.728
- relative viability (HCC-78; first compound 6.325 µM): 0.502
- relative viability (HCC-78; first compound 20 µM): 0.426
- relative viability (COR-L 105; first compound 0.2 µM): 0.592
- relative viability (COR-L 105; first compound 0.6325 µM): 0.661
- relative viability (COR-L 105; first compound 2 µM): 0.72
- relative viability (COR-L 105; first compound 6.325 µM): 0.571
- relative viability (COR-L 105; first compound 20 µM): 0.571
- relative viability (SK-MES-1; first compound 0.2 µM): 0.454
- relative viability (SK-MES-1; first compound 0.6325 µM): 0.424
- relative viability (SK-MES-1; first compound 2 µM): 0.376
- relative viability (SK-MES-1; first compound 6.325 µM): 0.272
- relative viability (SK-MES-1; first compound 20 µM): 0.21
- relative viability (NCI-H1993; first compound 0.2 µM): 0.534
- relative viability (NCI-H1993; first compound 0.6325 µM): 0.531
- relative viability (NCI-H1993; first compound 2 µM): 0.517
- relative viability (NCI-H1993; first compound 6.325 µM): 0.483
- relative viability (NCI-H1993; first compound 20 µM): 0.3
- relative viability (HCC-15; first compound 0.2 µM): 0.634
- relative viability (HCC-15; first compound 0.6325 µM): 0.607
- relative viability (HCC-15; first compound 2 µM): 0.66
- relative viability (HCC-15; first compound 6.325 µM): 0.341
- relative viability (HCC-15; first compound 20 µM): 0.163
- relative viability (NCI-H647; first compound 0.2 µM): 0.414
- relative viability (NCI-H647; first compound 0.6325 µM): 0.364
- relative viability (NCI-H647; first compound 2 µM): 0.397
- relative viability (NCI-H647; first compound 6.325 µM): 0.33
- relative viability (NCI-H647; first compound 20 µM): 0.126
- relative viability (EMC-BAC-2; first compound 0.2 µM): 0.97
- relative viability (EMC-BAC-2; first compound 0.6325 µM): 0.897
- relative viability (EMC-BAC-2; first compound 2 µM): 0.8
- relative viability (EMC-BAC-2; first compound 6.325 µM): 0.852
- relative viability (EMC-BAC-2; first compound 20 µM): 0.368
- relative viability (NCI-H661; first compound 0.2 µM): 0.496
- relative viability (NCI-H661; first compound 0.6325 µM): 0.571
- relative viability (NCI-H661; first compound 2 µM): 0.577
- relative viability (NCI-H661; first compound 6.325 µM): 0.416
- relative viability (NCI-H661; first compound 20 µM): 0.284
- relative viability (A-427; first compound 0.2 µM): 0.583
- relative viability (A-427; first compound 0.6325 µM): 0.578
- relative viability (A-427; first compound 2 µM): 0.572
- relative viability (A-427; first compound 6.325 µM): 0.541
- relative viability (A-427; first compound 20 µM): 0.308
- relative viability (NCI-H460; first compound 0.2 µM): 0.438
- relative viability (NCI-H460; first compound 0.6325 µM): 0.479
- relative viability (NCI-H460; first compound 2 µM): 0.43
- relative viability (NCI-H460; first compound 6.325 µM): 0.182
- relative viability (NCI-H460; first compound 20 µM): 0.0456
- relative viability (NCI-H1734; first compound 0.2 µM): 0.458
- relative viability (NCI-H1734; first compound 0.6325 µM): 0.492
- relative viability (NCI-H1734; first compound 2 µM): 0.452
- relative viability (NCI-H1734; first compound 6.325 µM): 0.323
- relative viability (NCI-H1734; first compound 20 µM): 0.178
- relative viability (COR-L23; first compound 0.2 µM): 0.405
- relative viability (COR-L23; first compound 0.6325 µM): 0.475
- relative viability (COR-L23; first compound 2 µM): 0.418
- relative viability (COR-L23; first compound 6.325 µM): 0.346
- relative viability (COR-L23; first compound 20 µM): 0.225
- relative viability (HOP-62; first compound 0.2 µM): 0.206
- relative viability (HOP-62; first compound 0.6325 µM): 0.222
- relative viability (HOP-62; first compound 2 µM): 0.206
- relative viability (HOP-62; first compound 6.325 µM): 0.222
- relative viability (HOP-62; first compound 20 µM): 0.147
- relative viability (201T; first compound 0.2 µM): 0.849
- relative viability (201T; first compound 0.6325 µM): 0.887
- relative viability (201T; first compound 2 µM): 0.812
- relative viability (201T; first compound 6.325 µM): 0.831
- relative viability (201T; first compound 20 µM): 0.533
- relative viability (BEN; first compound 0.2 µM): 0.811
- relative viability (BEN; first compound 0.6325 µM): 0.547
- relative viability (BEN; first compound 2 µM): 0.797
- relative viability (BEN; first compound 6.325 µM): 0.739
- relative viability (BEN; first compound 20 µM): 0.317
- relative viability (LK-2; first compound 0.2 µM): 0.343
- relative viability (LK-2; first compound 0.6325 µM): 0.288
- relative viability (LK-2; first compound 2 µM): 0.246
- relative viability (LK-2; first compound 6.325 µM): 0.346
- relative viability (LK-2; first compound 20 µM): 0.163
- relative viability (NCI-H1915; first compound 0.2 µM): 0.263
- relative viability (NCI-H1915; first compound 0.6325 µM): 0.273
- relative viability (NCI-H1915; first compound 2 µM): 0.256
- relative viability (NCI-H1915; first compound 6.325 µM): 0.232
- relative viability (NCI-H1915; first compound 20 µM): 0.245
- relative viability (EKVX; first compound 0.2 µM): 0.405
- relative viability (EKVX; first compound 0.6325 µM): 0.342
- relative viability (EKVX; first compound 2 µM): 0.331
- relative viability (EKVX; first compound 6.325 µM): 0.321
- relative viability (EKVX; first compound 20 µM): 0.341
- relative viability (PC-14; first compound 0.2 µM): 0.17
- relative viability (PC-14; first compound 0.6325 µM): 0.197
- relative viability (PC-14; first compound 2 µM): 0.201
- relative viability (PC-14; first compound 6.325 µM): 0.137
- relative viability (PC-14; first compound 20 µM): 0.0966
